Assays:
[1] = target: T1, Indoleamine 2,3-dioxygenase 1 (Homo sapiens, UniProt P14902); assay: Inhibition of IDO1 (unknown origin) assessed as reduction in kynurenine formation using L-tryptophan as substrate by absorbance based analysis
[2] = target: T1, Indoleamine 2,3-dioxygenase 1; assay: Inhibition of IDO1 in IFNgamma-stimulated human HeLa cells assessed as reduction in kynurenine formation using L-tryptophan as substrate by absorbance based analysis

T1 sequence (P14902 whole entry): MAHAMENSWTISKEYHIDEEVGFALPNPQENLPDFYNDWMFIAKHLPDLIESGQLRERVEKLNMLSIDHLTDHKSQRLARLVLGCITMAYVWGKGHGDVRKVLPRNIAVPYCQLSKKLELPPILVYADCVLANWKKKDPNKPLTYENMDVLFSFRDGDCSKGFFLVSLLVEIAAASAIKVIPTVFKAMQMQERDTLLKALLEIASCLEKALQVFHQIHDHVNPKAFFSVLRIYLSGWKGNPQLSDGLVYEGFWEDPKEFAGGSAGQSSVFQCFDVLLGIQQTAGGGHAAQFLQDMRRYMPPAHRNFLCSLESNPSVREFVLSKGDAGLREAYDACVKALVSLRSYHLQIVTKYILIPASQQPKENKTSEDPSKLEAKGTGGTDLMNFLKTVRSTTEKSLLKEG

IC50 [1] [µM]	IC50 [2] [µM]	Compound
> 30	> 30	O=C(NCc1ccccc1)c1cccc(N/C(=N/O)c2ccc3occc3c2)c1
2.2	8	O/N=C(/Nc1cccc(F)c1)c1ccc2oc(COCC3CC3)cc2c1
1.2	1.9	O/N=C(/Nc1cccc(C(F)(F)F)c1)c1ccc2occc2c1
> 30	16.2	O/N=C(/NCc1cccs1)c1ccc2occc2c1
7.1	6.1	COCc1cc2cc(/C(=N\O)Nc3cccc(F)c3)ccc2o1
> 30	> 30	CC(=O)c1cccc(N/C(=N/O)c2ccc3occc3c2)c1
0.93	2.5	COCc1cc2cc(/C(=N\O)Nc3cccc(Br)c3)ccc2o1
0.44	1.1	O/N=C(/Nc1cccc(Br)c1)c1ccc2occc2c1
11	11.9	O/N=C(/Nc1cccc(-c2ccccc2)c1)c1ccc2occc2c1
0.9	10.8	O/N=C(/Nc1cccc(Cl)c1)c1ccc2oc(-c3ccccc3)cc2c1
2.4	16.2	O/N=C(/Nc1ccc(F)c(Br)c1)c1ccc2oc3ccccc3c2c1
> 30	5.8	O/N=C(/NCc1cccc(Cl)c1)c1ccc2occc2c1
0.4	3.2	O/N=C(/Nc1cccc(Br)c1)c1ccc2oc(COCC3CC3)cc2c1
> 30	> 30	O/N=C(/NCc1ccco1)c1ccc2occc2c1
8	5.9	OCc1cc2cc(/C(=N\O)Nc3cccc(Cl)c3)ccc2o1
0.9	8.6	O/N=C(/Nc1cccc(Br)c1)c1ccc2oc(-c3ccccc3)cc2c1
> 30	> 30	O/N=C(/Nc1cccc(Oc2ccccc2)c1)c1ccc2occc2c1
22	17.6	O/N=C(/NCc1ccc(F)c(Cl)c1)c1ccc2occc2c1
> 30	> 30	O/N=C(/NCC1CC1)c1ccc2occc2c1
1.2	2.2	O/N=C(/Nc1ccc(F)c(C(F)(F)F)c1)c1ccc2occc2c1
> 30	> 30	O/N=C(/Nc1ccc(Cl)cc1)c1ccc2occc2c1
> 30	> 30	Cc1ccc(N/C(=N/O)c2ccc3occc3c2)cc1C
32.7	20	O/N=C(/Nc1cccc(F)c1)c1ccc2occc2c1
1.5	17.6	O/N=C(/Nc1cccc(Cl)c1)c1ccc2oc(COCC3CC3)cc2c1
0.69	1.5	O/N=C(/Nc1cccc(Cl)c1)c1ccc2occc2c1

Continued, compound first:

Compound	IC50 [1] [µM]	IC50 [2] [µM]
O/N=C(/Nc1cccc(COc2ccccc2)c1)c1ccc2occc2c1	> 30	> 30
O=C(NCC1CCCCC1)c1cccc(N/C(=N/O)c2ccc3occc3c2)c1	> 30	> 30
COc1cc(N/C(=N/O)c2ccc3oc4ccccc4c3c2)cc(OC)c1	> 30	> 30
O/N=C(/Nc1cccc(Br)c1)c1ccc2oc3ccccc3c2c1	1.3	10.8
O/N=C(/NCc1cccc(Cl)c1)c1ccc2oc3ccccc3c2c1	3.6	29.6
CCCCOc1cccc(N/C(=N/O)c2ccc3occc3c2)c1	> 30	> 30
O/N=C(/Nc1cccc(Cl)c1)c1ccc2oc3ccccc3c2c1	1.8	7.6
O/N=C(/Nc1cccc(F)c1)c1ccc2oc(-c3ccccc3)cc2c1	11	10.6
OCc1cc2cc(/C(=N\O)Nc3cccc(Br)c3)ccc2o1	0.71	1.2
O/N=C(/Nc1ccc(F)c(Cl)c1)c1ccc2oc3ccccc3c2c1	9.6	22.8
O/N=C(/Nc1ccc(F)c(F)c1)c1ccc2occc2c1	22.7	14
O/N=C(/Nc1ccccc1)c1ccc2occc2c1	> 30	19
OCc1cc2cc(/C(=N\O)Nc3cccc(F)c3)ccc2o1	1.7	2.4
O/N=C(/Nc1ccc(F)c(Br)c1)c1ccc2occc2c1	1.6	2.6
COCc1cc2cc(/C(=N\O)Nc3cccc(Cl)c3)ccc2o1	1	2.2
O/N=C(/NCc1ccccc1)c1ccc2occc2c1	> 30	28.2
O/N=C(/Nc1cccc(Cc2ccccc2)c1)c1ccc2occc2c1	> 30	> 30
O/N=C(/Nc1ccc(Cl)c(F)c1)c1ccc2occc2c1	> 30	10.3
O/N=C(/Nc1ccc(F)c(Cl)c1)c1ccc2occc2c1	5.2	1.8
CC1CCN(C(=O)c2cccc(N/C(=N/O)c3ccc4occc4c3)c2)CC1	> 30	> 30

Source: ChEMBL document CHEMBL4819055, “Discovery of 5-(N-hydroxycarbamimidoyl) benzofuran derivatives as novel indoleamine 2,3-dioxygenase 1 (IDO1) inhibitors” (Bioorg Med Chem Lett, 2021)
